Data on 12 molecules can be found in publication PMC10877416 (Translational Oncology, 2024).

Bridge positions count the residues as written; N and C are the ends. Square brackets hold non-standard residues; d marks the D form. Ends that are not written are not given here. Peptide text beside a SMILES is read from it. * marks the point of attachment. Biotin = O=C1N[C@H]2[C@H](CS[C@H]2CCCCC(=O)*)N1; Nle = CCCC[C@H](N)C(=O)O; Abu = CC[C@H](N)C(=O)O

A short description of data set [1]: Peptide stability in RPMI 1640 medium with 10 % FBS. To be noted: RPMI 1640 + 10 % heat-inactivated FBS; for Additional decrease in peptide content after 24 h of incubation: 37°C; for Stability in the medium: 0 and 24 h.
The next data set has as its system TCS Ctrl cells. As to the kind of experiment: Cell viability assay (CellTiter-Glo), TCS Ctrl cells. The format is cell-based. To be noted: highest tested concentration, 24 h.
For another data set, the system named is Jurkat E6.1 cells. Kind of data set: Cell viability assay (CellTiter-Glo), Jurkat E6.1 cells. The settings on record: 24 h; for Effect on Jurkat E6.1 cells at lower concentrations: concentrations below the highest tested (150.00 to 5.56 µM range); for Number of living, metabolically active Jurkat E6.1 cells: highest tested concentration (150.00 µM), normalized to untreated cells, three experiments in triplicate. For orientation: ATP-based viability assays read luminescence as a measure of living cells.

A further data set concerns the target T1, PD-1/PD-L1 complex (Homo sapiens, UniProt Q15116).
T1 construct: expressed in transfected cells
Kind of data set: PD-1 T cell NF-κB::eGFP reporter co-culture assay. The settings on record: PD-1 reporter cells + TCS CD86/PD-L1; peptide 150.00-5.56 µM; 90 min preincubation, 24 h co-culture; flow cytometry; normalized to PD-1 reporter/TCS CD86. The format is cell-based. On the technique in general: A flow cytometer gives signals particle by particle.

For the next data set, the target named is T2, PD-1 (Homo sapiens, UniProt Q15116).
T2 construct: purchased Recepton Company, Poland R1–001–03
T2 sequence (Q15116 25-288): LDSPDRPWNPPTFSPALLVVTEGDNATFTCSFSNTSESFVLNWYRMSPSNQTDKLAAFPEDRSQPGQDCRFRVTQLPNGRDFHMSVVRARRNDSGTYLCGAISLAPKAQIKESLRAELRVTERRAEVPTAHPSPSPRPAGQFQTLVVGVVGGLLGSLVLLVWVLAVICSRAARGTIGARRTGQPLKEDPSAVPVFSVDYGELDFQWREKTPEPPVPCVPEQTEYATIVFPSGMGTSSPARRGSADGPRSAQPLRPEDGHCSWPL
As to the kind of experiment: SPR analysis: PD-1 titrated over immobilized biotinylated peptides or PD-L1. The format is binding. The settings on record: SPR KD 198 µM versus 2.04 µM. (In general: Surface plasmon resonance follows binding to a sensor surface in real time, without labels.)

The subject of data set [2] is murine primary lymphocytes and Jurkat cells. The settings on record: cited from earlier work. On the procedure: (§1) To better examine the potency of the PD-L1-derived peptides at the cellular level, competitive assays and stimulation assays were performed. […] These differences in obtained results may be due to the fact that in SPR and ELISA, the peptide is immobilized to the surface of the sensor or the plate, while it is in the solution in cellular assays. Moreover, the immobilization of the peptide may ...

The nature of a further data set: Solubility in water. The format is physicochemical. An excerpt:
To increase solubility, its sequence was elongated at the N- and C-terminals by adding hydrophilic amino acids from the protein sequence. […] These modifications were introduced to prevent the oxidation of methionine and cysteine.

Data set [3] concerns Jurkat E6.1 and HCT-116 cells. The settings on record: co-culture model with activated Jurkat E6.1 and HCT-116 cells; cited from earlier work. On the procedure:
as §1

Another data set deals with T3, PD-1 (Recepton) (human, UniProt Q15116 25-170).
T3 construct: also called PD-1 protein; source: bought: Recepton Company, Poland, #R1–001–03
T3 sequence (Q15116 25-170): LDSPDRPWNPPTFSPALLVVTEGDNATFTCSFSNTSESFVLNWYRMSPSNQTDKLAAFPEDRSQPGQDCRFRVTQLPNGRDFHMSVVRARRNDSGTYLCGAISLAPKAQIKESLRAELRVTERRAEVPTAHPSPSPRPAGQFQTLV
As to the kind of experiment: SPR; Biacore T200; biotinylated peptides (~800 RU; L1 ~500 RU) or biotinylated PD-L1 immobilised on an SA sensor chip; PD-1 injected at 10 to 0.31 µM; PBS-P running buffer, 30 µl/min, 25°C. The settings on record: both partners purified.

The mark [4] stands for this setting: pH 8.0, 100 μM peptide, RP-HPLC.

T1 sequence (Q15116 25-288, one chain of several): as the sequence (Q15116 25-288) above

As to `CCCC[C@@H]1NC(=O)[C@@H](NC(=O)[C@H](CCCNC(=N)N)NC(C)=O)CSSC[C@@H](C(=O)N[C@@H](CCCNC(=N)N)C(=O)N[C@H](C(N)=O)[C@@H](C)CC)NC(=O)[C@H](Cc2ccc(O)cc2)NC(=O)[C@H](CC(=O)O)NC(=O)[C@H](C)NC(=O)[C@H](CO)NC(=O)CNC(=O)[C@H](Cc2ccc(O)cc2)NC(=O)[C@H](CO)NC(=O)[C@H]([C@@H](C)CC)NC1=O` [Peptide L12], in [1] (pH 8.0, 100 μM peptide, 0 h, RP-HPLC), the “Decrease in the amount of peptide at 0 h compared to control” value is recorded as “approximately 10%”. For the same molecule, the “Additional decrease in peptide content after 24 h of incubation” value in [1] (setting [4]) was approximately 11%. Further, the “Stability in the medium” value in [1] (RP-HPLC) was “highest stability”. The “Effect on TCS Ctrl cell viability” value in the data set on TCS Ctrl cells is recorded as “significant decrease in cell viability”. In the data set with Jurkat E6.1 cells, the “Effect on Jurkat E6.1 cells at lower concentrations” value is given as “no negative effects at lower concentrations” and the “Number of living, metabolically active Jurkat E6.1 cells” value is reported as 38%.

As to `CCCC[C@H](NC(=O)[C@H](CC)NC(=O)[C@H](CCCNC(=N)N)NC(=O)[C@H](Cc1ccc(O)cc1)NC(=O)[C@@H](NC(C)=O)C(C)C)C(=O)N[C@H](C(=O)N[C@@H](CO)C(=O)N[C@@H](Cc1ccc(O)cc1)C(=O)NCC(=O)NCC(=O)N[C@@H](C)C(=O)N[C@@H](CC(=O)O)C(=O)N[C@@H](Cc1ccc(O)cc1)C(=O)N[C@@H](CCCCN)C(=O)N[C@@H](CCCNC(=N)N)C(=O)N[C@H](C(=O)N[C@H](C(N)=O)[C@@H](C)O)[C@@H](C)CC)[C@@H](C)CC` [Peptide L7] (HELM PEPTIDE1{[ac].V.Y.R.[Abu].[Nle].I.S.Y.G.G.A.D.Y.K.R.I.T.[am]}$$$$V2.0), the “Restoration of eGFP expression in the reporter assay” value on PD-1/PD-L1 complex was “concentration-dependent effect”. Besides, the “KD of (L7) relative to (L11), fold weaker” value at PD-1 is “approximately 97 fold”.

For the molecule `CC(=O)N[C@@H](C)C(=O)N[C@@H](CC(=O)O)C(=O)N[C@@H](Cc1ccc(O)cc1)C(=O)N[C@@H](CCCCN)C(=O)N[C@@H](CCCNC(=N)N)C(N)=O` [Peptide L15] (Ac-ADYKR-NH2), the “Restoration of eGFP expression in the reporter assay” value at PD-1/PD-L1 complex was “concentration-dependent effect”. Also, the “Amount of peptide at 0 h, relative to control” value in data set [1] (pH 8.0, 100 μM peptide, 0 h, RP-HPLC peak area vs peptide in H2O at 0 h, three independent experiments) is on record as 88%. In data set [1] (setting [4]), the “Additional decrease in peptide content after 24 h of incubation” value turned out to be 12%. Besides, the “Stability in the medium” value in [1] (RP-HPLC) is “least concentration fluctuation”. As for `CCCC[C@@H]1NC(=O)[C@@H](NC(=O)[C@H](CCCNC(=N)N)NC(C)=O)CSSC[C@@H](C(=O)N[C@@H](CCCNC(=N)N)C(=O)N[C@H](C(N)=O)[C@@H](C)CC)NC(=O)[C@H](Cc2ccc(O)cc2)NC(=O)[C@H](CC(=O)O)NC(=O)[C@H](C)NC(=O)[C@H](Cc2ccccc2)NC(=O)CNC(=O)[C@H](Cc2ccc(O)cc2)NC(=O)[C@H](CO)NC(=O)[C@H]([C@@H](C)CC)NC1=O` [Peptide L13], in the data set with Jurkat E6.1 cells, the “Effect on Jurkat E6.1 cells at lower concentrations” value is “no negative effects at lower concentrations” and the “Number of living, metabolically active Jurkat E6.1 cells” value is 3%. Consider GADYKRITVKVN [PL120131], for which, in [2], the “Apoptotic signal induced by sPD-L1” value is “reverses the apoptotic signal”.

As to `CCCC[C@H](NC(=O)[C@H](CCC(=O)O)NC(=O)[C@H](Cc1c[nH]c2ccccc12)NC(=O)[C@H](Cc1ccc(O)cc1)NC(=O)[C@@H](NC(=O)[C@@H](NC(=O)[C@H](CC(C)C)NC(=O)[C@H](C)NC(C)=O)[C@@H](C)CC)C(C)C)C(=O)N[C@@H](CCC(=O)O)C(=O)N[C@@H](CC(=O)O)C(=O)N[C@@H](CCCCN)C(=O)N[C@@H](CC(N)=O)C(=O)N[C@H](C(=O)N[C@H](C(=O)N[C@@H](CCC(N)=O)C(=O)N[C@@H](Cc1ccccc1)C(=O)N[C@H](C(=O)N[C@@H](Cc1c[nH]cn1)C(=O)NCC(=O)N[C@@H](CCC(=O)O)C(=O)N[C@@H](CCC(=O)O)C(=O)N[C@@H](CC(=O)O)C(N)=O)C(C)C)[C@@H](C)CC)[C@@H](C)CC` [Peptide L3] (HELM PEPTIDE1{[ac].A.L.I.V.Y.W.E.[Nle].E.D.K.N.I.I.Q.F.V.H.G.E.E.D.[am]}$$$$V2.0), in the data set “Solubility in water”, the “Solubility in water” value is listed as “no positive effect on the solubility”. Consider `CCCC[C@H](NC(=O)[C@H](CCC(=O)O)NC(=O)[C@H](Cc1c[nH]c2ccccc12)NC(=O)[C@H](Cc1ccc(O)cc1)NC(=O)[C@@H](NC(=O)[C@@H](NC(=O)[C@H](CC(C)C)NC(=O)[C@H](C)NC(=O)[C@H](C)NC(=O)[C@H](CC(C)C)NC(=O)[C@H](CC(=O)O)NC(=O)[C@H](CC(C)C)NC(=O)[C@H](CCC(N)=O)NC(=O)[C@H](CCCCN)NC(=O)[C@H](CCC(=O)O)NC(C)=O)[C@@H](C)CC)C(C)C)C(=O)N[C@@H](CCC(=O)O)C(=O)N[C@@H](CC(=O)O)C(=O)N[C@@H](CCCCN)C(=O)N[C@@H](CC(N)=O)C(=O)N[C@H](C(=O)N[C@H](C(=O)N[C@@H](CCC(N)=O)C(=O)N[C@@H](Cc1ccccc1)C(=O)N[C@H](C(N)=O)C(C)C)[C@@H](C)CC)[C@@H](C)CC` [Peptide L5] (HELM PEPTIDE1{[ac].E.K.Q.L.D.L.A.A.L.I.V.Y.W.E.[Nle].E.D.K.N.I.I.Q.F.V.[am]}$$$$V2.0), for which the “Solubility in water” value in the data set “Solubility in water” was “no positive effect on the solubility”.

On to “RTMIWYpGAWYKRI [Peptide P1.3, Wang et al. peptide with D-proline in the loop and a tryptophan zipper]”, for which the “IL-2 secretion” value in [3] was “has the ability to restore IL-2 secretion”. `CCCC[C@H](NC(=O)[C@H](CCC(=O)O)NC(=O)[C@H](Cc1c[nH]c2ccccc12)NC(=O)[C@H](Cc1ccc(O)cc1)NC(=O)[C@@H](NC(=O)[C@@H](NC(=O)[C@H](CC(C)C)NC(=O)[C@H](C)NC(C)=O)[C@@H](C)CC)C(C)C)C(=O)N[C@@H](CCC(=O)O)C(=O)N[C@@H](CC(=O)O)C(=O)N[C@@H](CCCCN)C(=O)N[C@@H](CC(N)=O)C(=O)N[C@H](C(=O)N[C@H](C(=O)N[C@@H](CCC(N)=O)C(=O)N[C@@H](Cc1ccccc1)C(=O)N[C@H](C(=O)N[C@@H](Cc1c[nH]cn1)C(=O)NCC(=O)N[C@@H](CCC(=O)O)C(=O)N[C@@H](CCC(=O)O)C(=O)N[C@@H](CC(=O)O)C(=O)N[C@@H](CC(C)C)C(=O)N[C@@H](CCCCN)C(=O)N[C@H](C(=O)N[C@@H](CCC(N)=O)C(=O)N[C@@H](Cc1c[nH]cn1)C(=O)N[C@@H](CO)C(N)=O)C(C)C)C(C)C)[C@@H](C)CC)[C@@H](C)CC` [Peptide L4] (HELM PEPTIDE1{[ac].A.L.I.V.Y.W.E.[Nle].E.D.K.N.I.I.Q.F.V.H.G.E.E.D.L.K.V.Q.H.S.[am]}$$$$V2.0): in the data set “Solubility in water”, the “Solubility in water” value is “no positive effect on the solubility”. As usually defined, the Kd is the free concentration of one partner at which half of the binding sites on the other are occupied at equilibrium, for simple one-to-one binding. With Biotin-GGGGGGCYR[Abu][Nle]ISYGGADYKRICV (disulfide 7-23) [biotin-GGGGG-PD-L1(110–128)^(V111C-T127C) (L10)], in the data set with PD-1 (Recepton), binding was characterised by a dissociation constant (Kd) of 22 µM. The molecule Biotin-GGGGGVYR[Abu][Nle]ISYGGADYKRIT [biotin-GGGGG-PD-L1(111–127) (L7)] had a Kd in the data set with PD-1 (Recepton) of 198 µM. Same read-out and setting: the result for Biotin-GGGGGR[Abu][Nle]ISYGGADYKRI [biotin-GGGGG-PD-L1(113–126) (L8)] reads 14.9 µM.
